Holding throughout (format): in vivo
Test [1] deals with ducksalad (Heteranthera limosa). Nature of the test: Test C flooded paddy test: ducksalad. To be noted: Heteranthera limosa, scale 0 to 100 (0 no effect, 100 complete control), read-out: Plant response rating, Ducksalad; for pest or weed control at 62 g/ha: 62 g ai/ha; for pest or weed control at 125 g/ha: 125 g ai/ha; for pest or weed control at 250 g/ha: 250 g ai/ha; for pest or weed control at 31 g/ha: 31 g ai/ha. The method, boiled down:
(§1)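 Rating: visual, 0–100 (100 = complete control), versus untreated controls after 13 to 15 greenhouse days. Treatment went into paddy water held at 3 cm over the soil, on plants grown to two leaves.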

For test [2], the system named is barnyardgrass (Echinochloa crus-galli). The experiment in a line: Test C flooded paddy test: barnyardgrass. To be noted: Echinochloa crus-galli, scale 0 to 100 (0 no effect, 100 complete control), read-out: Plant response rating, Barnyardgrass; for pest or weed control at 62 g/ha: 62 g ai/ha; for pest or weed control at 125 g/ha: 125 g ai/ha; for pest or weed control at 250 g/ha: 250 g ai/ha; for pest or weed control at 31 g/ha: 31 g ai/ha. The procedure, abridged:
as §1

The test system of test [3] is cocklebur (common cocklebur, Xanthium strumarium). Nature of the test: Test C pre-/postemergence: cocklebur. The text has this: (§2) Seeds of plant species selected from blackgrass (Alopecurus myosuroides), bromegrass, downy (downy bromegrass, Bromus tectorum), foxtail, green (green foxtail, Setaria viridis), ryegrass, Italian (Italian ryegrass, Lolium multiflorum), winter wheat (Triticum aestivum), wild oat (Avena fatua), galium (catchweed bedstraw, Galium aparine), bermudagrass (Cynodon dactylon), surinam grass (Brachiaria decumbens), cocklebur (common cocklebur, Xanthium strumarium), corn (Zea mays), large crabgrass (Digitaria sanguinalis), woolly cupgrass (Eriochloa villosa), foxtail, giant (giant foxtail, Setaria faberii), goosegrass (Eleusine indica), johnsongrass (Sorghum halepense), kochia (Kochia scoparia), lambsquarters (Chenopodium album), morningglory (Ipomoea coccinea), nightshade (eastern black nightshade, Solanum ptycanthum), nutsedge, yellow (yellow nutsedge, Cyperus esculentus), pigweed (Amaranthus retroflexus), ragweed (common ragweed, Ambrosia elation), soybean (Glycine max), common (oilseed) sunflower (Helianthus annuus), Russian thistle (Salsola kali) and velvetleaf (Abutilon theophrasti) were planted into a blend of loam soil and sand and treated preemergence with test chemicals formulated in a non-phytotoxic solvent mixture which included a surfactant.
(§3) At the same time, plants selected from these crop and weed species and also barley (winter barley, Hordeum vulgare), canarygrass (Phalaris minor), chickweed (common chickweed, Stellaria media) windgrass (Apera spica-venti) and deadnettle (henbit deadnettle, Lamium amplexicaule) were planted in pots containing Redi-Earth® planting medium (Scotts Company, 14111 Scottslawn Road, Marysville, Ohio 43041) comprising spaghnum peat moss, vermiculite, wetting agent and starter nutrients and treated with postemergence applications of test chemicals formulated in the same manner. Plants ranged in height from 2 to 18 cm (1- to 4-leaf stage) for postemergence treatments.
(§4) Treated plants and controls were maintained in a greenhouse for 13 to 15 days, after which time all species were compared to controls and visually evaluated. Plant response ratings, summarized in Table C, are based on a scale of 0 to 100 where 0 is no effect and 100 is complete control. A dash (-) response means no test result.

The subject of test [4] is woolly cupgrass (Eriochloa villosa). Nature of the test: Test C pre-/postemergence: woolly cupgrass.
Excerpt: as §2, §3, §4

Test [5] deals with canarygrass (Phalaris minor). The experiment in a line: Test C postemergence: canarygrass.
Excerpt: as §3, §4

Test [6] concerns deadnettle (henbit deadnettle, Lamium amplexicaule). Nature of the test: Test C postemergence: deadnettle.
Excerpt: as §3, §4

Test [7] concerns chamomile (scentless chamomile, Matricaria inodora). The experiment in a line: Test D pre-/postemergence: chamomile. The text has this: (§5) Seeds of plant species selected from bluegrass (annual bluegrass, Poa annua), blackgrass (Alopecurus myosuroides), canarygrass (Phalaris minor), chickweed (common chickweed, Stellaria media), galium (catchweed bedstraw, Galium aparine), bromegrass, downy (downy bromegrass, Bromus tectorum), field poppy (Papaver rhoeas), field violet (Viola arvensis), foxtail, green (green foxtail, Setaria viridis), deadnettle (henbit deadnettle, Lamium amplexicaule), ryegrass, Italian (Italian ryegrass, Lolium multiflorum), kochia (Kochia scoparia), lambsquarters (Chenopodium album), oilseed rape (Brassica napus), pigweed (Amaranthus retroflexus), Russian thistle (Salsola iberica), chamomile (scentless chamomile, Matricaria inodora), speedwell (bird's-eye speedwell, Veronica persica), barley, spring (spring barley, Hordeum vulgare), wheat, spring (spring wheat, Triticum aestivum), buckwheat, wild (wild buckwheat, Polygonum convolvulus), mustard, wild (wild mustard, Sinapis arvensis), oat, wild (wild oat, Avena fatua), radish, wild (wild radish, Raphanus raphanistrum), windgrass (Apera spica-venti), barley, winter (winter barley, Hordeum vulgare), and wheat, winter (winter wheat, Triticum aestivum) were planted into a silt loam soil and treated preemergence with test chemicals formulated in a non-phytotoxic solvent mixture which included a surfactant. At the same time, these same crop and weed species were planted in pots containing the planting medium comprising spaghnum peat moss, vermiculite, wetting agent and starter nutrients and treated with postemergence applications of the test chemicals formulated in the same manner. Plants ranged in height from 2 to 18 cm (1- to 4-leaf stage).
(§6) Treated plants and controls were maintained in a controlled growth environment for 14 to 21 days after which time all species were compared to controls and visually evaluated. Plant response ratings, summarized in Table D, are based on a scale of 0 to 100 where 0 is no effect and 100 is complete control. A dash (-) response means no test result.

Test [8] relates to wheat, spring (spring wheat, Triticum aestivum). Nature of the test: Test D pre-/postemergence: wheat, spring.
Excerpt: as §5, §6

Test [9] deals with windgrass (Apera spica-venti). Nature of the test: Test D pre-/postemergence: windgrass.
Excerpt: as §5, §6

Where [10] appears, read: Flood (flooded paddy test), visual rating after 13 to 15 days.
The mark [11] stands for this setting: Postemergence, 62 g ai/ha, scale 0 to 100 (0 no effect, 100 complete control).
[12] abbreviates: Postemergence, 125 g ai/ha, scale 0 to 100, 0 no effect, 100 complete control.
The mark [13] stands for this setting: Postemergence, 250 g ai/ha, scale 0 to 100.
The mark [14] stands for this setting: Preemergence, 31 g ai/ha, scale of 0 to 100, 0 is no effect, 100 is complete control.
Setting [15] is: Preemergence, 62 g ai/ha, scale of 0 to 100, 0 is no effect, 100 is complete control.
[16] abbreviates: Preemergence, 125 g ai/ha, scale 0 to 100, 0 no effect, 100 complete control.
Setting [17] is: Postemergence, 31 g ai/ha, scale 0 to 100 (0 no effect, 100 complete control).
[18] abbreviates: Preemergence, 250 g ai/ha, scale 0 to 100, 0 no effect, 100 complete control.
Setting [19] is: 31 g ai/ha, scale 0 to 100 (0 no effect, 100 complete control).
Where [20] appears, read: 62 g ai/ha, scale 0 to 100 (0 no effect, 100 complete control).
Setting [21] is: 125 g ai/ha, scale 0 to 100, 0 no effect, 100 complete control.
The mark [22] stands for this setting: Postemergence, 16 g ai/ha, scale 0 to 100.
Setting [23] is: Preemergence, 16 g ai/ha, scale 0 to 100 (0 no effect, 100 complete control).
Where [24] appears, read: Preemergence, 31 g ai/ha, scale 0 to 100 (0 no effect, 100 complete control).
[25] abbreviates: Preemergence, 62 g ai/ha, scale 0 to 100.
Where [26] appears, read: Preemergence, 125 g ai/ha, scale 0 to 100.

Like-named read-outs stand apart in the source and are kept apart here.

For the molecule `COc1nn(-c2ccc(C(F)(F)F)cc2)nc1Cn1ccc(C(F)(F)F)n1` [Compound 17, 4-methoxy-2-[4-(trifluoromethyl)phenyl]-5-[[3-(trifluoromethyl)-1H-pyrazol-1-yl]methyl]-2H-1,2,3-triazole], the figures for the pest or weed control at 62 g/ha in test [1] (setting [10]) and in test [2] (setting [10]) were 0% and 20%, respectively. In addition, the pest or weed control at 125 g/ha in test [1] (setting [10]) came out at 0%; in test [2] (setting [10]), 40%. The pest or weed control at 250 g/ha came out at 20% in [1] (setting [10]) and 45% in test [2] (setting [10]). For the same molecule, the pest or weed control at 31 g/ha in test [1] (Flood) and in test [2] (Flood) was 0% each time.

Take `CCc1nn(-c2ccc(C(F)(F)F)cc2)nc1Oc1cccc(OC(F)(F)F)c1` [Compound 125, 4-ethyl-5-[3-(trifluoromethoxy)phenoxy]-2-[4-(trifluoromethyl)phenyl]-2H-1,2,3-triazole]: in test [1] (setting [10]), the pest or weed control at 125 g/ha was 75% and the pest or weed control at 250 g/ha turned out to be 90%. Moreover, in test [1] (Flood), the pest or weed control at 31 g/ha is 0% and the pest or weed control at 62 g/ha is 0%. Moreover, in [2] (setting [10]), the pest or weed control at 125 g/ha was 0% and the pest or weed control at 250 g/ha stood at 10%. Besides, in [2] (Flood), the pest or weed control at 31 g/ha was determined as 0% and the pest or weed control at 62 g/ha was 0%.

For the molecule `Fc1ccc(-n2nc(Cc3ccnc(C(F)(F)F)c3)c(OCC(F)(F)F)n2)cc1` [Compound 142], the “Plant response rating, Cocklebur” value was 30 in test [3] (setting [11]); 40 in test [3] (setting [12]); 50 in test [3] (setting [13]); 0 in [3] (setting [14]); 10 in test [3] (setting [15]); 10 in test [3] (setting [16]). Also, the “Plant response rating, Cupgrass, Woolly” value in test [4] (setting [17]) was 40; in test [4] (setting [11]) it was 40; in [4] (setting [12]) it was 75; in test [4] (setting [13]) it was 85; in [4] (setting [14]) it was 55; in test [4] (setting [15]), 70. For the same molecule, the entries for the “Plant response rating, Cupgrass, Woolly” value in test [4] (setting [16]) and in test [4] (setting [18]) were 95 and 98, respectively. The “Plant response rating, Canarygrass” value in [5] (setting [19]) is reported as 45; in test [5] (setting [20]), 80; in test [5] (setting [21]) it was 85; in test [5] (250 g ai/ha, scale 0 to 100), 100. Moreover, the “Plant response rating, Deadnettle” value is recorded as 100 in test [6] (setting [19]); 100 in test [6] (setting [20]); 100 in test [6] (setting [21]); 100 in [6] (250 g ai/ha, scale 0 to 100).

In the case of `Cc1nn(-c2ccc(F)c(C(F)(F)F)c2)nc1Oc1ccnc(C(F)(F)F)c1` [Compound 147], the “Plant response rating, Cocklebur” value in [3] (setting [14]) is 35. Moreover, the “Plant response rating, Cupgrass, Woolly” value in test [4] (setting [14]) stood at 50; in [4] (setting [15]), 55; in test [4] (setting [16]), 95; in test [4] (setting [18]), 98. The “Plant response rating: Chamomile” value in [7] (setting [17]) turned out to be 60; in test [7] (setting [11]) it was 75; in test [7] (setting [12]), 80. Moreover, the “Plant response rating, Chamomile” value is listed as 45 in [7] (setting [22]); 25 in test [7] (setting [23]); 15 in test [7] (setting [24]); 90 in test [7] (setting [25]); 95 in test [7] (setting [26]). Besides, the “Plant response rating: Wheat, Spring” value in [8] (setting [17]) amounted to 15; in [8] (setting [11]), 20; in [8] (setting [12]) it was 25. Moreover, the “Plant response rating, Wheat, Spring” value came out at 10 in test [8] (setting [22]); 0 in test [8] (setting [23]); 0 in [8] (setting [24]); 0 in test [8] (setting [25]); 5 in test [8] (setting [26]). For the same molecule, the “Plant response rating: Windgrass” value in [9] (setting [11]) came to 50; in [9] (setting [12]), 75. Further, the “Plant response rating, Windgrass” value in test [9] (setting [22]) is recorded as 15; in test [9] (Postemergence, 31 g ai/ha, scale 0 to 100), 25; in test [9] (setting [23]) it was 0; in test [9] (setting [24]) it was 60; in test [9] (setting [25]), 100; in test [9] (setting [26]), 100.

These data come from patent US9302999B2, “Substituted triazoles as herbicides” (E. I. DU PONT DE NEMOURS AND COMPANY, priority 2012, dated 2016).
